What all share (test): NCI anticancer screen, dose series, 48 h
Assay [1] has as its system BT-549.
Assay [2] relates to CAKI-1.
The test system of assay [3] is COLO 205.
In assay [4] the test system is DU-145.
Assay [5] relates to HCT-116.
The subject of assay [6] is HL-60.
The test system of assay [7] is HOP-62.
Assay [8] relates to HOP-92.
In assay [9] the test system is HT-29.
Assay [10] concerns Hs-578T.
Assay [11] concerns K562.
For assay [12], the system named is M14.
The test system of assay [13] is MCF7.
Assay [14] concerns NCI-H226.
Assay [15] concerns NCI-H460.
For assay [16], the system named is RPMI-8226.
Assay [17] has as its system SF-268.
Assay [18] deals with SK-MEL-28.
In assay [19] the test system is SK-MEL-5.
In assay [20] the test system is SW-620.

SMILES strings stand for the structures.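 Grown in 96-well plates, cells were treated for 48 hours with each compound at five concentrations. Insufficient inhibition: endpoint recorded as highest concentration tested. Abbreviation: GI50, concentration required for 50% inhibition of growth.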 The source made the active and inactive calls. No stated cut-off is given here; in the data, active = GI50 up to about 1.1 µM and inactive = higher. Peptide text beside a SMILES is read from it. * marks the point of attachment. Boc = CC(C)(C)OC(=O)* Some results are limits rather than exact numbers.

These results are taken from ChEMBL document CHEMBL1201862, “PubChem BioAssay data set” (2004).

On to `CCC1=[N+](CC)CCN1CC`, for which the GI50 in [1], in assay [2], in [3], in assay [4], in assay [5] and in [6] was > 100 µM (inactive) in each case. Also, the GI50 in [7], in assay [8], in assay [9], in assay [10], in assay [11] and in [12] was > 100 µM (inactive) in each case. Moreover, the GI50 in [13], in assay [14], in assay [15], in assay [16], in [17] and in assay [18] was > 100 µM (inactive) throughout. In addition, the GI50 in assay [19] and in assay [20] was > 100 µM (inactive) throughout.

On to `CC(C)=C[C@@H]1C[C@H](C)c2c(O)cc(C)c3c2C1=C(C)C(=O)C3=O` [ELISABATIN A], for which the GI50 in assay [1] is 13.7 µM (inactive); in assay [2] it was 16.6 µM (inactive); in assay [3], 17.7 µM (inactive); in assay [4], 15.3 µM (inactive); in [5], 15.2 µM (inactive); in assay [6], 21.9 µM (inactive). The GI50 in assay [7] is 17.4 µM (inactive); in assay [8], 13.4 µM (inactive); in [9], 19.4 µM (inactive); in [10], 19.6 µM (inactive); in [11], 17.2 µM (inactive); in assay [12] it was 14 µM (inactive). The GI50 in [13] is 22.8 µM (inactive); in [14], 16.3 µM (inactive); in [15], 18 µM (inactive); in assay [16], 18.2 µM (inactive); in [17], 15 µM (inactive); in [18], 15.5 µM (inactive). Also, the GI50 in assay [19] was 13.6 µM (inactive); in [20], 16.1 µM (inactive).

For the molecule `COC(=O)C(Cc1ccccc1)NC(=O)C(CS)NC(=O)OC(C)(C)C` (stereo not drawn) (Boc-Cys-Phe-OMe; configuration not given here), the GI50 was > 100 µM (inactive) in assay [1]; > 100 µM (inactive) in assay [2]; > 100 µM (inactive) in [3]; > 100 µM (inactive) in assay [4]; 41.9 µM (inactive) in assay [5]; 27.7 µM (inactive) in [6]. Also, the GI50 in assay [7] is > 100 µM (inactive); in assay [8] it was > 100 µM (inactive); in [9], 99.3 µM (inactive); in [10] it was > 100 µM (inactive); in assay [11] it was 38.2 µM (inactive); in assay [12] it was > 100 µM (inactive). Further, the GI50 was 73.5 µM (inactive) in assay [13]; > 100 µM (inactive) in [14]; > 100 µM (inactive) in assay [15]; > 100 µM (inactive) in assay [16]; > 100 µM (inactive) in assay [17]; > 100 µM (inactive) in assay [18]. For the same molecule, the figures for the GI50 in [19] and in assay [20] were > 100 µM (inactive) and 53.7 µM (inactive), respectively.

With `COc1ccc(/[N+]([O-])=C/c2ccc(OC(=S)S)c(OC)c2)cc1`, the GI50 in assay [1] was 26.2 µM (inactive); in assay [2], 17 µM (inactive); in assay [3], 44.9 µM (inactive); in assay [4], 41.6 µM (inactive); in assay [5] it was 28.5 µM (inactive); in [6], 17.3 µM (inactive). Besides, the GI50 in assay [7] was 39.7 µM (inactive); in assay [8], 23.2 µM (inactive); in [9], 33.3 µM (inactive); in assay [10], 34.4 µM (inactive); in [11] it was 21.7 µM (inactive); in assay [12], 46.8 µM (inactive). In addition, the GI50 is 5.58 µM (inactive) in assay [13]; 65.6 µM (inactive) in assay [14]; > 100 µM (inactive) in [15]; 30.3 µM (inactive) in assay [16]; 42.5 µM (inactive) in assay [17]; 52.2 µM (inactive) in [18]. The results for the GI50 in [19] and in [20] were 24.5 µM (inactive) and 30.9 µM (inactive), respectively.

Consider `c1ccc2c(c1)nc1n2CSCC1`, for which the GI50 in assay [1], in assay [2], in [3], in assay [4], in assay [5] and in [6] was > 100 µM (inactive) throughout. Besides, the GI50 in assay [7], in assay [8], in assay [9], in assay [10], in assay [11] and in assay [12] was > 100 µM (inactive) in each case. Besides, the GI50 in assay [13], in [14], in assay [15], in assay [16], in assay [17] and in assay [18] was > 100 µM (inactive) throughout. The GI50 in assay [19] and in assay [20] was > 100 µM (inactive) throughout.

Turning to `O=C(O)[C@@H]1CCC(=O)N1C(c1ccc2c(c1)OCO2)c1ccc2c(c1)OCO2`, the GI50 in assay [1], in [2], in assay [3], in assay [4], in assay [5] and in assay [6] was > 100 µM (inactive) throughout. Moreover, the GI50 in assay [7], in assay [8], in [9], in assay [10], in assay [11] and in [12] was > 100 µM (inactive) in each case. The GI50 in assay [13], in [14], in [15], in [16], in assay [17] and in assay [18] was > 100 µM (inactive) in each case. The GI50 in assay [19] and in assay [20] was > 100 µM (inactive) each time.

`CC(C)/C(Cl)=N\OC(=O)Nc1cccc(F)c1`: the GI50 in assay [1] was 2.66 µM (inactive); in [2], 16 µM (inactive); in assay [3], 2.44 µM (inactive); in [4], 18.4 µM (inactive); in assay [5], 16.1 µM (inactive); in [6], 1.96 µM (inactive). Moreover, the GI50 in [7] was > 31.6 µM (inactive); in [8] it was 1.46 µM (inactive); in [9], 18.3 µM (inactive); in assay [10], 26.5 µM (inactive); in assay [11], 2.19 µM (inactive); in assay [12], 0.933 µM (active). Further, the GI50 in [13] was 11 µM (inactive); in assay [14], 17.2 µM (inactive); in [15], 27.4 µM (inactive); in [16] it was 4.34 µM (inactive); in [17], 19.6 µM (inactive); in [18], 16.2 µM (inactive). The GI50 was 15 µM (inactive) in assay [19] and 2.23 µM (inactive) in assay [20].
